Laboratory results taken from patent publication US10048254B2, “Cyclic-di-AMP specific detection” (priority 2013, dated 2018).

Legend:
CabP [1] = target: T1, CabP (Streptococcus pneumoniae, UniProt A0A0H2ZNB5); test: Mobility retardation of labeled c-di-AMP in 8% native PAGE gel; assay type: binding; settings: 30 min at room temperature, FIG. 2B, read-out: affinity constant
Procedure: (§1) The interaction between CabP and c-di-AMP was evaluated by multiple approaches. […] Proteins in the other half gel were transferred onto PVDF membrane and incubated with [α-^32P]c-di-AMP, which we generated from [α-^32P]ATP (MP Biomedicals) using purified Mycobacterium tuberculosis DacA (2). […] We then incubate labeled c-di-AMP with various concentration of CabP in the reaction with 50 mM Tris-HCl (pH7.5), 10 mM MgCl2, 5 mM CaCl2, 5 mM KCl, and 10% (v/v) glycerol. The samples were incubated for 30 min at room temperature and then separated the reactions with 8% native PAGE gel (3). […] However, the mobility of c-di-AMP was not retarded by PdxR (FIG. 2C), indicating the specificity.

M. tuberculosis DacA = M. tuberculosis DacA (Mycobacterium tuberculosis, UniProt P9WNW5); test: as above; assay type: binding; settings: purified M. tuberculosis DacA, FIG. 2C
Chain of M. tuberculosis DacA (P9WNW5 whole entry): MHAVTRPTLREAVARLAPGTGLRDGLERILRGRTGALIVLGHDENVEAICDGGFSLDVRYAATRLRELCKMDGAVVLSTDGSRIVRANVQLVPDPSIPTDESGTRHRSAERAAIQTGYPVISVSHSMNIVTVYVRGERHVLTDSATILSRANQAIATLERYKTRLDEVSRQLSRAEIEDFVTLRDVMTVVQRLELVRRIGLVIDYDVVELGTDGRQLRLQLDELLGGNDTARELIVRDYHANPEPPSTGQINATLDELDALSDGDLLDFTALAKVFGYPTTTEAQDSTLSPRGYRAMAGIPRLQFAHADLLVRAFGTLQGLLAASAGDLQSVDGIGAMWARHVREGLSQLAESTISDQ
Procedure: as §1

PdxR [2] = test: Mobility retardation of labeled c-di-AMP in 8% native PAGE gel (control protein); assay type: binding; settings: FIG. 2C
CabP [3] = target: T1, CabP; test: Competition of unlabeled nucleotides with labeled c-di-AMP for CabP, native gel; assay type: binding; settings: 1,000-fold excess of unlabeled nucleotide, 1 μM CabP, FIG. 2D
Procedure: FIGS. 2A-D Interaction of CabP with c-di-AMP. (A) CabP and PdxR (control) were loaded for SDS-PAGE. Gels were either stained with Coomassie Bright Blue (Staining) or blotted with labeled c-di-AMP (Blotting). M, molecular weight marker (Fisher Scientific). (B) Separation of CabP and c-di-AMP reactions with 8% native gel. (C) Mobility of c-di-AMP in the presence or absence of the indicated proteins. (D) Mobility of labeled c-di-AMP mixed with 1 μM CabP in the presence or absence of the indicated unlabeled nucleotides. “cold nt” refers to unlabeled nucleotide.
as §1

CabP [4] = target: T1, CabP; test: ELISA on CabP-coated plate, optimization of biotin-AHC-c-di-AMP concentration; assay type: binding
Procedure: The binding of c-di-AMP by CabP is very specific with good affinity, therefore, an ELISA method using a solid support coated with CabP to detect c-di-AMP was developed (FIG. 4). The coating concentration of CabP (Table 1) and the concentration of biotin-AHC-c-di-AMP (Table 2) were optimized.
In one embodiment, a 96-well microtiter plate was coated with CabP at 50 μg/ml in coating buffer (3.03 g/L Na2CO3 and 6.0 g/L NaHCO3), 100 μl/well, sealed and incubated overnight at 4° C.
The coating solution was removed by washing three times, that is, by filling the wells with 200 μl phosphate buffered saline (PBS) containing 0.05% (v/v) polysorbate 20 (TWEEN®-20), and aspirating.
The wells of the microtiter plate were then blocked with a blocking solution (1% BSA in PBS), 100 μl/well, and the plate incubated 1 h at room temperature.
To remove the blocking solution, the plates were washed 3 times with PBS containing 0.05% (v/v) polysorbate 20 (TWEEN®-20). 25 nM biotin-labeled c-di-AMP was diluted in 50 mM Tris-HCl (pH 8.0) or other appropriate media/solution and mixed with two-fold serial diluted standards (from 200 nM to 6.25 nM), or samples prepared within 50 mM Tris-HCl (pH 8.0) or the same media/solution. 100 μl/well, incubate 2 h at room temperature.
The standards and the samples were removed, and the wells washed 3 times with PBS containing 0.05% (v/v) polysorbate 20 (TWEEN®-20).
Streptavidin-HRP (Thermo Scientific) diluted at 1:10,000 with PBS containing 0.05% (v/v) polysorbate 20 (TWEEN®-20), was added to the wells, 100 μl/well, and the plate incubated 1 h at room temperature.
The streptavidin-HRP solution was removed by washing the wells 3 times with PBS containing 0.05% (v/v) polysorbate 20 (TWEEN®-20).
A substrate solution [20 ml 0.1 M citric acid (pH 5.0), 20 μl 30% H2O2, and 10 mg o-phenylenediamine (OPD) (Sigma, 1 tablet)], 100 μl/well, was added to each well. After approximately 30 minutes (typical) or sufficient color development, 100 μl/well stop solution (2 N H2SO4) was added to each well. The absorbance of each well was read with a plate reader at 492 nm.

CabP [5] = target: T1, CabP; test: Blot of SDS-PAGE-separated protein on PVDF membrane incubated with [α-32P]c-di-AMP; assay type: binding; settings: FIG. 2A
Procedure: as §1

PdxR [6] = assay type: binding; settings: PdxR control on PVDF membrane, FIG. 2A
biotin-labeled c-di-AMP = test: Binding of truncated forms of CabP to biotin-labeled c-di-AMP; settings: proteins expressed from pET28a(+)
Description: To investigate the c-di-AMP binding region of CabP, truncated forms of CabP were expressed and their ability to bind c-di-AMP examined.
Truncated forms included: P1, in which 15 amino acids were removed from the N-terminal of CabP; P2, which results from the removal of 94 amino acid residues from the C-terminal of CabP, thereby eliminating the TrkA_C region; and P3, in which both N- and C-terminal ends of CabP are truncated.
All PCR products were cloned into pET28a(+) to express P1, P2, and P3. These proteins were then used to evaluate their interaction with c-di-AMP.
No binding of P1, P2 or P3 was observed using biotin-labeled c-di-AMP, while binding to intact CabP expressed from pST2788 was normal.

T1 sequence (A0A0H2ZNB5 whole entry, added parts left off): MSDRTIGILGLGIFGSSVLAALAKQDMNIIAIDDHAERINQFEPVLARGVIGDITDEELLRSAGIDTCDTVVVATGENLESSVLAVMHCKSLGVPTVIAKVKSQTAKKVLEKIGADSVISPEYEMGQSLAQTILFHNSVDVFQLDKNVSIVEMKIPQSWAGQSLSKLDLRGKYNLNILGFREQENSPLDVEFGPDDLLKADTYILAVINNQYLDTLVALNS

## Nc1ncnc2c1ncn2[C@@H]1O[C@@H]2COP(=O)(O)O[C@H]3[C@@H](O)[C@H](n4cnc5c(N)ncnc54)O[C@@H]3COP(=O)(O)O[C@H]2[C@H]1O [c-di-AMP, cyclic di-adenosine monophosphate]
CabP [1]
  Kd: ~150 nM
M. tuberculosis DacA
  retardation of c-di-AMP mobility: retardation was also observed
PdxR [2]
  retardation of c-di-AMP mobility: not retarded
CabP [3]
  free labeled c-di-AMP in the presence of unlabeled nucleotide: free c-di-AMP could be observed

## biotin-AHC-c-di-AMP [B-c-di-AMP]
CabP [4]; [B-c-di-AMP] 0.78125
  ELISA signal, Binding Buffer: 0.158
CabP [4]; [B-c-di-AMP] 1.5625
  ELISA signal, Binding Buffer: 0.2503
CabP [4]; [B-c-di-AMP] 3.125
  ELISA signal, Binding Buffer: 0.4685
CabP [4]; [B-c-di-AMP] 6.25
  ELISA signal, Binding Buffer: 0.7071
CabP [4]; [B-c-di-AMP] 12.5
  ELISA signal, Binding Buffer: 0.8821
CabP [4]; [B-c-di-AMP] 25
  ELISA signal, Binding Buffer: 1.1813
CabP [4]; [B-c-di-AMP] 50
  ELISA signal, Binding Buffer: 1.352
CabP [4]; [B-c-di-AMP] 100
  ELISA signal, Binding Buffer: 1.4377

## [α-^32P]c-di-AMP [labeled c-di-AMP]
CabP [5]
  binding of labeled c-di-AMP to blotted protein: bound
PdxR [6]
  binding of labeled c-di-AMP to blotted protein: not

## CabP
biotin-labeled c-di-AMP
  binding to biotin-labeled c-di-AMP: normal
